Results reported in patent publication EP1206258B1, “COMPOSITIONS CONTAINING ESTERS FOR TREATING PARASITIC INFESTATIONS OF ORGANISMS” (priority 1999, dated 2001).

Key:
Psoroptes cuniculi = experiment: in vitro immersion assay on the mite Psoroptes cuniculi; details: for mites had died: exposed for 24 hours, control 8%
Protocol: A series of in vitro assays were conducted to examine the effects of the compound trans-cinnamic acid ethyl ester on the mite Psoroptes cuniculi. This mite infests rabbits and is very similar to the mite Psoroptes ovis which infests sheep and causes sheep scab.
The mites were taken from the ears of infested rabbits and exposed for 24 hours to the active compound at concentrations of 10, 1 or 0.1 % (V/V). The concentrations were obtained by serial dilution of the compound in 0.05% sodium dodecyl sulphate (SDS).
This is illustrated in Figure 2 of the accompanying drawings.
The LC95 was 6.29% (95% confidence interval 4.98-8.88).
Line (1) represents adult males, line (2) adult females and (3) female nymphs.
Thus, trans-cinnamic acid ethyl ester gives greater than 50% levels of mortality within 24 hours, for all life cycle stages of P. cuniculi after short contact times (1 min) at concentrations of 2.2% (V/V). At one minute contact time, concentrations of greater than 6% (V/V) are required to bring about mortality of greater than 95%. Recent theoretical analysis using simulation modelling (Wall, unpublished) has shown that sustained mortality of greater than 50% per day is required to suppress a growing population of P. ovis.

Acarus siro = experiment: further residual filter paper bioassay on grain/flour mite Acarus siro (Table 2b); details: for % mortality: ethanol control 24.00
Protocol: A further study was carried out to investigate the effect of Ethyl cinnamate on the grain/flour mite Acarus siro using a residual filter paper bioassay. Mites from a colony grown at 25°C ± 85% RH were removed using a spatular and placed into a petri dish. 275 µ of the cinnamate was placed onto a filter paper in one well of a 6 well (17 ml) cell culture plate and likewise, 275 µ of DH2O was placed on another piece of 4 cm Whatman filter paper in a second well. Mixed instars (male + female) were added to each well. The actual number of instars was unknown in each case, since the test only sought to establish the presence of activity; measured in terms of cidal effect (knockdown). The duration of the test was 5 ± days. Both treatments were incubated at 25°C ± 85% RH and each well was checked 4 times daily. Small amounts of food mix of yeastea 20B and wheat germ in the ratio 3 : 1 were included on the filter paper in both treatments.
The treatment was later modified : 2, 10 cm Whatman filter papers were cut to ø of 3 cm and placed in the mite culture. After 10 minutes they were removed using forceps. The mites were then swept into each well respective of treatment. The cinnamate provided too glutenous (viscous) to be used undiluted. Therefore, it was dissolved using 10 fold dilutions in ethanol. Therefore 30 µ cinnamate : 270 µ ethanol to the extent of 10-4. The control was ethanol.
The above experiment was repeated.

mealworms, T.molibr = experiment: filter paper treatment of mealworms; details: 5 mealworms
Text: Additionally, it was also noted that Ethyl cinnamate is toxic to insects, at least mealworms, T.molibr. […] 5 mealworms were placed onto each filter paper treatment. Although all were of the same instar, the 10-1 individuals were slightly larger. […] 10-7 did die. Therefore, the size of larvae appears to be important.

Aspergillus nidulans = experiment: growth inhibition test on SAB agar, A. nidulans; type: cell-based
Protocol: The antifungal activity of ethyl trans-cinnamate against a number of different fungi was investigated by means of in a simple growth inhibition test.
The following quantities of Ethyl trans-Cinnamate were added to Sabourand Dextrose agar (SAB); 50 ml L^-1, 4ml L^-1, 2ml L^-1, 1ml L^-1, 400 µl L^-1, 200 µl L^-1 and 40 µl L^-1. […] These were then autoclaved and poured into standard Petri dishes. […] Duplicate plates of each concentration, plus control plates containing only SAB Agar, where then separately inoculated with, four different species of fungi, these were Aspergillus nidulans, Penicillium digitatum, Rhizopus arrhizus and Fusarium culmorum. Inoculation was carried out using a single stab at the centre of each Petri dish. The plates were then incubated at 30°C for 6 days and daily measurements of mycobial growth where taken every 24 hours.

Mouse = details: Oral, VPITAR 33(5)48,74; cited from earlier work
Guinea Pig = details: Oral, VPITAR 33(5)48,74; cited from earlier work
Rabbit = details: Dermal, FRMM; cited from earlier work

## CCOC(=O)/C=C/c1ccccc1 [trans-cinnamic acid ethyl ester]
Psoroptes cuniculi; 0.1% (V/V), same as control (0.05% SDS only)
  LT50: approximately 2.5 days
Psoroptes cuniculi; 24 hours after exposure
  LD 25 Concentration (% V/V): 0.53 % V/V
  LD 50 Concentration (% V/V) (LC50): 2.21 % V/V
  LD 75 Concentration (% V/V): 3.88 % V/V
  LD 95 Concentration (% V/V) (LC95): 6.29 % V/V
Psoroptes cuniculi; concentration 1%
  50% mortality (LT50): 1 days
Psoroptes cuniculi; concentration 10%
  50% mortality (LT50): 0.5 days
Psoroptes cuniculi; 0.1 % (V/V) in 0.05% SDS
  mites had died: 20%
Psoroptes cuniculi; 1 % (V/V) in 0.05% SDS
  mites had died: 74%
Psoroptes cuniculi; 10 % (V/V) in 0.05% SDS
  mites had died: 100%
Psoroptes cuniculi; one minute contact time
  concentrations required to bring about mortality of greater than 95%: greater than 6 % (V/V)
Psoroptes cuniculi; within 24 hours, all life cycle stages, contact time 1 min, 2.2% (V/V)
  levels of mortality: greater than 50%
Acarus siro; Concentration 10-1 (dilution in ethanol)
  % mortality: 100.00%
Acarus siro; Concentration 10-2 (dilution in ethanol)
  % mortality: 100.00%
Acarus siro; Concentration 10-3 (dilution in ethanol)
  % mortality: 98.40%
Acarus siro; Concentration 10-4 (dilution in ethanol)
  % mortality: 86.00%
Acarus siro; undiluted dose, approximately
  time to 100% mortality: less than 15 minutes
mealworms, T.molibr; concentration 10-1, slightly larger individuals, moulted after two days
  death of mealworms: did not die
mealworms, T.molibr; concentration printed 10-7
  death of mealworms: did die
Aspergillus nidulans; 1ml L^-1, Day 1
  Level of Radial Growth (mm) of A. nidulans: 0 mm
Aspergillus nidulans; 1ml L^-1, Day 2
  Level of Radial Growth (mm) of A. nidulans: 0 mm
Aspergillus nidulans; 1ml L^-1, Day 3
  Level of Radial Growth (mm) of A. nidulans: 6.0 mm
Aspergillus nidulans; 1ml L^-1, Day 4
  Level of Radial Growth (mm) of A. nidulans: 11.5 mm
Aspergillus nidulans; 1ml L^-1, Day 5
  Level of Radial Growth (mm) of A. nidulans: 16.5 mm
Aspergillus nidulans; 1ml L^-1, Day 6
  Level of Radial Growth (mm) of A. nidulans: 22.0 mm
Aspergillus nidulans; 2ml L^-1, Day 1
  Level of Radial Growth (mm) of A. nidulans: 0 mm
Aspergillus nidulans; 2ml L^-1, Day 2
  Level of Radial Growth (mm) of A. nidulans: 0 mm
Aspergillus nidulans; 2ml L^-1, Day 3
  Level of Radial Growth (mm) of A. nidulans: 0 mm
Aspergillus nidulans; 2ml L^-1, Day 4
  Level of Radial Growth (mm) of A. nidulans: 0 mm
Aspergillus nidulans; 2ml L^-1, Day 5
  Level of Radial Growth (mm) of A. nidulans: 6.5 mm
Aspergillus nidulans; 2ml L^-1, Day 6
  Level of Radial Growth (mm) of A. nidulans: 12.5 mm
Aspergillus nidulans; 4ml L^-1, Day 1
  Level of Radial Growth (mm) of A. nidulans: 0 mm
Aspergillus nidulans; 4ml L^-1, Day 2
  Level of Radial Growth (mm) of A. nidulans: 0 mm
Aspergillus nidulans; 4ml L^-1, Day 3
  Level of Radial Growth (mm) of A. nidulans: 0 mm
Aspergillus nidulans; 4ml L^-1, Day 4
  Level of Radial Growth (mm) of A. nidulans: 0 mm
Aspergillus nidulans; 4ml L^-1, Day 5
  Level of Radial Growth (mm) of A. nidulans: 0 mm
Aspergillus nidulans; 4ml L^-1, Day 6
  Level of Radial Growth (mm) of A. nidulans: 4.5 mm
Aspergillus nidulans; 40µl L^-1, Day 1
  Level of Radial Growth (mm) of A. nidulans: 0 mm
Aspergillus nidulans; 40µl L^-1, Day 2
  Level of Radial Growth (mm) of A. nidulans: 12.0 mm
Aspergillus nidulans; 40µl L^-1, Day 3
  Level of Radial Growth (mm) of A. nidulans: 23.0 mm
Aspergillus nidulans; 40µl L^-1, Day 4
  Level of Radial Growth (mm) of A. nidulans: 27.0 mm
Aspergillus nidulans; 40µl L^-1, Day 5
  Level of Radial Growth (mm) of A. nidulans: 32.5 mm
Aspergillus nidulans; 40µl L^-1, Day 6
  Level of Radial Growth (mm) of A. nidulans: 38 mm
Aspergillus nidulans; 50ml L-^1 level
  inhibition of growth: complete inhibition of growth
Aspergillus nidulans; 50 ml L^-1, Day 1
  Level of Radial Growth (mm) of A. nidulans: 0 mm
Aspergillus nidulans; 50 ml L^-1, Day 2
  Level of Radial Growth (mm) of A. nidulans: 0 mm
Aspergillus nidulans; 50 ml L^-1, Day 3
  Level of Radial Growth (mm) of A. nidulans: 0 mm
Aspergillus nidulans; 50 ml L^-1, Day 4
  Level of Radial Growth (mm) of A. nidulans: 0 mm
Aspergillus nidulans; 50 ml L^-1, Day 5
  Level of Radial Growth (mm) of A. nidulans: 0 mm
Aspergillus nidulans; 50 ml L^-1, Day 6
  Level of Radial Growth (mm) of A. nidulans: 0 mm
Aspergillus nidulans; 200µl L^-1, Day 1
  Level of Radial Growth (mm) of A. nidulans: 0 mm
Aspergillus nidulans; 200µl L^-1, Day 2
  Level of Radial Growth (mm) of A. nidulans: 9.5 mm
Aspergillus nidulans; 200µl L^-1, Day 3
  Level of Radial Growth (mm) of A. nidulans: 16.5 mm
Aspergillus nidulans; 200µl L^-1, Day 4
  Level of Radial Growth (mm) of A. nidulans: 23.0 mm
Aspergillus nidulans; 200µl L^-1, Day 5
  Level of Radial Growth (mm) of A. nidulans: 28.0 mm
Aspergillus nidulans; 200µl L^-1, Day 6
  Level of Radial Growth (mm) of A. nidulans: 34.5 mm
Aspergillus nidulans; 400µl L^-1, Day 1
  Level of Radial Growth (mm) of A. nidulans: 0 mm
Aspergillus nidulans; 400µl L^-1, Day 2
  Level of Radial Growth (mm) of A. nidulans: 5.5 mm
Aspergillus nidulans; 400µl L^-1, Day 3
  Level of Radial Growth (mm) of A. nidulans: 11.5 mm
Aspergillus nidulans; 400µl L^-1, Day 4
  Level of Radial Growth (mm) of A. nidulans: 18.0 mm
Aspergillus nidulans; 400µl L^-1, Day 5
  Level of Radial Growth (mm) of A. nidulans: 24.5 mm
Aspergillus nidulans; 400µl L^-1, Day 6
  Level of Radial Growth (mm) of A. nidulans: 30.0 mm
Mouse
  LDSO: 4000 mg/kg
Guinea Pig
  LDSO: 4000 mg/kg
Rabbit
  LDSO: >5000 mg·kg
